Read-outs that look alike come from different tables or passages of the source.

These results are taken from patent publication US9295641B2, “Compositions containing alpha-2-adrenergic agonist components” (Allergan, Inc., priority 2000, dated 2016).

For series [1] the following is noted: 23° C. On the procedure: The pH-solubility profile of brimonidine tartrate in an aqueous formulation (Ophthalmic Solution) was established in the pH range of about 5 to about 8 at 23° C. Table 1. […] Likewise, the temperature may be varied somewhat, for example, solubility curves may be performed at room temperature.
The formulation vehicle was prepared by first dissolving polyvinyl alcohol (PVA) in water. The PVA was added to approximately ⅓ of the required total amount of purified water with constant stirring. The slurry was stirred for 20-30 minutes and then heated to 80-95° C. with constant stirring. The mixture was removed from the heat source within 1 hour after having reached the temperature of 80-90° C. and stirred for an additional 10 minutes to ensure homogeneity (Part I). The other ingredients of the Ophthalmic Solution, except for brimonidine tartrate, were dissolved in a separate container with an additional ⅓ of the required total amount of purified water (Part II). The PVA mixture (Part I) was then quantitatively transferred to Part II using several rinse volumes of purified water. The solution was adjusted to final volume with purified water without pH adjustment.
Brimonidine tartrate was weighed and transferred to a 10 mL test tube containing 5 mL of the formulation vehicle described above. The pH of each sample was then adjusted to a desired value using dilute sodium hydroxide and/or dilute hydrochloric acid. The samples were placed in a rack on a stir plate and stirred at high speed to achieve uniform mixing for 2 days; a partition was placed between the rack and the stir plate to prevent any heat diffusion from the stir plate to the samples.
At the end of two days of stirring, the pH value of each sample was measured, and then approximately 1 mL of each sample was placed in a micro centrifuge tube (polypropylene) and centrifuged at 4,000 rpm for 10 minutes. The supernatant was filtered through a 1 μm filter unit (Whatman, […], PTFE). The first 3-4 drops of the filtrate were discarded; the rest of the filtrate was received and diluted quantitatively with HPLC mobile phase. The dilute sample was then injected directly on the HPLC column (Dupont Zorbax, 250 mm×4.6 mm, 5 μm) for brimonidine tartrate assay in order to quantify the amount of brimonidine tartrate. A control of 0.5% brimonidine tartrate was prepared in the same formulation vehicle at pH 6.3-6.5 and assayed before (untreated) and after (treated) centrifugation and filtration. This was done to evaluate the potential loss of brimonidine tartrate in these two steps of the sample preparation. To ensure reproducibility, the study was repeated on consecutive days.

For series [2] the following is noted: for Solubility of Brimonidine tartrate: fifteen days. On the procedure: The effect of pH on the solubility of brimonidine tartrate in liquid formulations with and without SECs was determined. Particularly, the effect of the presence or absence of various concentrations of an exemplary SEC, sodium carboxymethylcellulose (CMC), on the solubility of brimonidine tartrate at various pH conditions was determined. The various concentrations of CMC tested with Brimonidine tartrate were 0%, 0.056%, 0.17%, 0.5%, 1.5% (w/v), see Table III.
The samples tested also contained isotonic components, buffer components, and stabilized chlorine dioxide (Purite™), Table III. Sodium carboxymethylcellulose, sodium chloride, potassium chloride, calcium chloride dihydrate, and magnesium chloride hexahydrate were USP grade. Boric acid and sodium borate decahydrate were NF grade.
Each sample (1 through 5) was brought to various points within a range of pH values from about 7 to about 10. The vials containing the sample solutions were placed on a laboratory rotator and left to equilibrate for fifteen days at 21° C. The sample solutions were filtered using a 25 mm diameter polysulfone cellulose acetate syringe type filter with 0.45 μm pore size. The filtered solutions were assayed for the amount of brimonidine tartrate in solution.
Conventional HPLC and detection techniques were used to detect and determine the concentrations of soluble brimonidine tartrate. Solubility is plotted against pH for each CMC concentration. The experimental data points were fitted to a modified Henderson-Hasselbalch equation using a nonlinear least squares routine (Deltagraph version 4.0 DeltaPoint, Inc.), See FIG. 1.

For series [3] the following is noted: composition including chlorite, equilibrated ten days. On the procedure:
Brimonidine tartrate is added to a test tube containing a composition including chlorite. The test tube was allowed to equilibrate for ten days. Samples obtained from the test tube are analyzed by HPLC using a size exclusion column in the presence or absence of a chaotrope, such as urea.

As for “5-bromo-6-(2-imidozolin-2-ylamino)quinoxaline tartrate [Brimonidine tartrate]”, the Solubility in series [1] (STUDY 1, pH 5.55, Ophthalmic Solution, theoretical concentration based on sample weight, solution clear) was > 16.44^b mgml^−1; in series [1] (STUDY 1, pH 5.92, Ophthalmic Solution), 13.26 mgml^−1; in series [1] (STUDY 1, pH 6.14, Ophthalmic Solution), 3.04 mgml^−1; in series [1] (STUDY 1, pH 6.57, Ophthalmic Solution), 0.755 mgml^−1; in series [1] (STUDY 1, pH 7.00, Ophthalmic Solution) it was 0.269 mgml^−1; in series [1] (STUDY 1, pH 7.45, Ophthalmic Solution), 0.117 mgml^−1. In addition, the Solubility is reported as 0.062 mgml^−1 in series [1] (STUDY 1, pH 7.83, Ophthalmic Solution); > 20.06^b mgml^−1 in series [1] (STUDY 2, pH 5.50, Ophthalmic Solution, theoretical concentration based on sample weight, solution clear); 16.08 mgml^−1 in series [1] (STUDY 2, pH 5.92, Ophthalmic Solution); 5.01 mgml^−1 in series [1] (STUDY 2, pH 6.06, Ophthalmic Solution); 0.319 mgml^−1 in series [1] (STUDY 2, pH 6.90, Ophthalmic Solution); 0.119 mgml^−1 in series [1] (STUDY 2, pH 7.40, Ophthalmic Solution). Besides, the Solubility in series [1] (STUDY 2, pH 7.77, Ophthalmic Solution) is listed as 0.063 mgml^−1; in series [1] (STUDY 2, pH 7.86, Ophthalmic Solution) it was 0.058 mgml^−1; in series [1] (STUDY 2, pH 7.88, Ophthalmic Solution) it was 0.054 mgml^−1. The “Solubility of Brimonidine tartrate” value in series [2] (0% CMC, pH 7.11, 21° C.) came to 0.2064 % w/v; in series [2] (0% CMC, pH 7.68, 21° C.), 0.0786 % w/v; in series [2] (0% CMC, pH 8.50, 21° C.) it was 0.0286 % w/v; in series [2] (0% CMC, pH 10.09, 21° C.), 0.0218 % w/v; in series [2] (0.056% CMC, pH 6.67, 21° C.) it was 0.9302 % w/v; in series [2] (0.056% CMC, pH 7.11, 21° C.) it was 0.2828 % w/v. The “Solubility of Brimonidine tartrate” value in series [2] (0.056% CMC, pH 7.77, 21° C.) worked out at 0.0721 % w/v; in series [2] (0.056% CMC, pH 9.93, 21° C.) it was 0.0234 % w/v; in series [2] (0.17% CMC, pH 6.68, 21° C.), 1.4200 % w/v; in series [2] (0.17% CMC, pH 6.93, 21° C.) it was 0.7302 % w/v; in series [2] (0.17% CMC, pH 7.81, 21° C.), 0.0735 % w/v; in series [2] (0.17% CMC, pH 8.55, 21° C.), 0.0328 % w/v. For the same compound, the “Solubility of Brimonidine tartrate” value in series [2] (0.17% CMC, pH 10.05, 21° C.) amounted to 0.0241 % w/v; in series [2] (0.5% CMC, pH 6.67, 21° C.), 1.4464 % w/v; in series [2] (0.5% CMC, pH 7.10, 21° C.), 0.3693 % w/v; in series [2] (0.5% CMC, pH 7.56, 21° C.), 0.1451 % w/v; in series [2] (0.5% CMC, pH 8.46, 21° C.) it was 0.0313 % w/v; in series [2] (0.5% CMC, pH 9.94, 21° C.) it was 0.0250 % w/v. For the same compound, the “Solubility of Brimonidine tartrate” value in series [2] (1.5% CMC, pH 6.68, 21° C.) is 1.4256 % w/v; in series [2] (1.5% CMC, pH 7.35, 21° C.) it was 0.1904 % w/v; in series [2] (1.5% CMC, pH 8.10, 21° C.), 0.0498 % w/v; in series [2] (1.5% CMC, pH 8.67, 21° C.), 0.0311 % w/v; in series [2] (1.5% CMC, pH 10.11, 21° C.), 0.0222 % w/v. In addition, the “Soluble Brimonidine tartrate (FIG. 1)” value is 1000 ppm in series [2] (pH 7.5, 0% CMC); 1300 ppm in series [2] (pH 7.5, 0.056% CMC); 1300 ppm in series [2] (pH 7.5, 0.17% CMC); 1600 ppm in series [2] (pH 7.5, 0.5% CMC); “about 1400 ppm” in series [2] (pH 7.5, 1.5% CMC). Further, the “Formation of dimers, by apparent molecular weights of brimonidine in solution” value in series [3] is listed as “a portion of the brimonidine tartrate monomer units have conjugated to form dimmers”.

A word on the pKa: it is the pH at which an ionisable group is half protonated. Low values mean a group that gives up its proton readily, high ones a group that holds its proton tightly. In “physchem”, `Brc1c(NC2=NCCN2)ccc2nccnc12` [5-bromo-6-(2-imidozolin-2-ylamino)quinoxaline] came in with a pKa of around 7.4.
